Source: patent US6355785B1, “Guanosine-rich oligonucleotide integrase inhibitors” (Aronex Pharmaceuticals, Inc., priority 1993, dated 2002)
Like-named read-outs stand apart in the source and are kept apart here. In the oligonucleotide strings, read from the 5' end, every base follows the letter of its sugar. An asterisk marks phosphorothioate; unmarked linkages are phosphodiester. Other units and linkages are bracketed, terminal groups are in braces. A string of capitals states the bases alone. d = 2'-deoxy (DNA)

Assays:
T7 polymerase = T7 polymerase (Escherichia phage T7, UniProt P00573); assay: Bacterial T7 in-vitro transcription assay; type: biochemical
Method: In this assay system, a 2 kb fragment (HindIII to EcoR1) of the FMLV virus (clone 57) was molecularly cloned between the HindIII/EcoR1 sites 10 bp downstream of the bacterial T7 promoter (p275A) or 50 bp downstream of the bacterial T3 promoter (pBSFMLV2). A schematic representation of these two recombinant plasmids can be seen in FIG. 1. Isolated recombinant DNA was then digested with DdeI. Oligonucleotides were then incubated with the digested DNA and the mixture was subjected to in-vitro transcription using either the T7 or T3 bacterial enzymes.

SUP T1 cells [1] = assay: Cytotoxicity assay, CellTiter 96 (MTS), SUP T1 cells; details: read-out: TC50 (concentration reducing cell proliferation by 50%); SUP T1, dye (MTS) metabolism assay
HSV-1 IE175 promoter = assay: Eukaryotic in vitro transcription (HeLa cell nuclear extract)
[2] = target: HIV-1 gp120 interaction with CD4 (Human immunodeficiency virus type 1 group M subtype B, UniProt P04578)
HIV-1 RT = HIV-1 RT (Human immunodeficiency virus type 1 group M subtype B, UniProt P04585); assay: In vitro inhibition of HIV-1 RT (kinetic analysis); type: biochemical; details: for IC50: read-out: ID50 (the source's name)
SUP T1 cells [3] = tested on: SUP T1 cells
HIV-1 strain DV = assay: HIV-1 induced syncytia formation assay in SUP T1 cells; type: cell-based
HIV-1DV = assay: HIV-1 p24 production in SUP T1 cells; type: cell-based; details: for IC50: SUP T1, HIV-1DV, four days
[4] = target: T1, FMLV reverse transcriptase (Friend murine leukemia virus, UniProt P26810); assay: Reverse transcriptase assay (ELOSA); type: biochemical; details: read-out: inhibitory concentration for 50% reduction in RT activity
T1 construct: Culture media containing FMLV reverse transcriptase (RT) was mixed with various concentrations; endogenous in cells; host or cells: culture medium of FMLV-infected murine fibroblasts (pLRB215)

HSV-2 strain HG52 = assay: HSV-2 viral yield reduction assay in Vero cells
[5] = target: recombinant HIV-1 integrase (wild-type) (Human immunodeficiency virus type 1 group M subtype B, UniProt P12497); assay: HIV-1 integrase 3′-processing and strand transfer assays; type: biochemical; set-up: Purified recombinant HIV-1 integrase enzyme (wild-type) was a generous gift from Dr. R. Craigie; purchased gift of Dr. R. Craigie, Laboratory of Molecular Biology, NIDDK (not bought)
Method: Integrase enzyme assays. Purified recombinant HIV-1 integrase enzyme (wild-type) was a generous gift from Dr. R. Craigie, Laboratory of Molecular Biology, National Institute of Diabetes and Digestive and Kidney Diseases. The enzyme (0.25 μM) was preincubated in reaction buffer at 20° C. for 30 minutes. All 3′-processing and strand-transfer reactions were performed as described previously by Fresen et al. (Fresen, et al., Proc. Natl. Acad. Sci. USA 90:2399-2403 (1993)) and Mazumder et al. (Mazumder, et al., Proc. Natl. Acad. Sci. USA 91:5771-5775 (1994)). Enzyme reactions were quenched by the addition of Maxam-Gilbert loading dye, and an aliquot was electrophoresed on a denaturing 20% polyacrylamide gel. Gels were then dried and subjected to autoradiography using Kodax XAR-2 film or exposed in a Molecular Dynamics Phospholmager cassette.
Integrase was preincubated at a final concentration of 200 (for HIV-1 and HIV-2) or 600 nM (for FIV and SIV) with inhibitor in reaction buffer (50 mM Nac1, 1 mM HEPES, pH 7.5, 50 μM dithiothreitol, 10% glycerol (wt/vol), 7.5 mM MnCl2 or MgCL2 (when specified), 0.1 mg/mL bovine serum albumin, 20 mM 2-mercaptoethanol, 10% dimethyl sulfoxide, and 25 mM MOPS, pH 7.2) at 30° C. for 30 minutes. When magnesium was used as the divalent metal ion, polyethylene glycol was added at a final concentration of 5% to increase activity as previously described (Engelman & Craigie, 1995). Preincubation for 30 minutes of the enzyme with inhibitor was performed to optimize increases the inhibitory activity in the 3′-processing reaction (Fesen et al., 1994). Then, 30 nM of the 5′-end ^32P-labeled linear oligonucleotide substrate was added, and incubation was continued for an additional 1 hr. The final reaction volume was 16 μL.
Electrophoresis and quantitation. Reactions were quenched by the addition of an equal volume […] of loading dye (98% deionized formamide, 10 mM EDTA, 0.025% xylene cyanol, 0.025% bromophenol blue). An aliquot (5 μL) was electrophoresed on a denaturing 20% polyacrylamide gel (0.09 M Tris-borate pH 8.3, 2 mM EDTA, 20% acrylamide, 8M urea). Gels were dried, exposed in a Molecular Dynamics Phosphorimager cassette, and analyzed using a Molecular Dynamics phosphorimager (Sunnyvale, Calif.). Percent inhibition was calculated using the following equation:
where C, N, and D are the fractions of 21mer substrate converted to 19mer (3′-processing product) or strand transfer products for DNA alone, DNA plus integrase, and integrase plus drug, respectively.
Antiviral assay. The RF laboratory strain of HIV-1 was used to infect established cell lines for one hour at 37° C. prior to washing and resuspension in medium containing increasing concentrations of drug. […] Purified recombinant HIV-1 integrase enzyme (wild-type) was a generous gift from Dr. Craigie, Laboratory of Molecular Biology, NIDDK. All 3′-processing and strand-transfers were performed as described previously by Fresen et al. (Fresen et al. (1993) Proc. Natl. Acad. Sci. VSA 90, 2399-2403) and Mazurnder et al. (Mazumder et al. (1994) Proc. Natl. Acad. Sci. USA 91, 5771-75).

SIVMAC251 = type: cell-based, simian immunodeficiency virus; details: SIVMAC251, MT4; read-out: IC50 virus production
[6] = tested on: HIV-1 strains (SKI, RF, DV, IIIB, ADP/141); assay: microbe, parasite or virus in culture; type: cell-based
[7] = tested on: Vesicular Stomatitis virus
Influenza A (H3N2) = Influenza A (H3N2) assay
HIV-2 (ROD, EHO) = assay: HIV-2 infection assay in MT4 cells; type: cell-based; details: read-out: IC50 virus production
[8] = read-out: ID50 [CD4], oligo binding to immobilized CD4
[9] = read-out: ID50 [gp 120], oligo preincubated with soluble gp120
[10] = SUP T1, HIV-1DV, four days, read-out: IC50 Syn (syncytium inhibition)

Chain of T7 polymerase (P00573 whole entry, the tested form may be a part): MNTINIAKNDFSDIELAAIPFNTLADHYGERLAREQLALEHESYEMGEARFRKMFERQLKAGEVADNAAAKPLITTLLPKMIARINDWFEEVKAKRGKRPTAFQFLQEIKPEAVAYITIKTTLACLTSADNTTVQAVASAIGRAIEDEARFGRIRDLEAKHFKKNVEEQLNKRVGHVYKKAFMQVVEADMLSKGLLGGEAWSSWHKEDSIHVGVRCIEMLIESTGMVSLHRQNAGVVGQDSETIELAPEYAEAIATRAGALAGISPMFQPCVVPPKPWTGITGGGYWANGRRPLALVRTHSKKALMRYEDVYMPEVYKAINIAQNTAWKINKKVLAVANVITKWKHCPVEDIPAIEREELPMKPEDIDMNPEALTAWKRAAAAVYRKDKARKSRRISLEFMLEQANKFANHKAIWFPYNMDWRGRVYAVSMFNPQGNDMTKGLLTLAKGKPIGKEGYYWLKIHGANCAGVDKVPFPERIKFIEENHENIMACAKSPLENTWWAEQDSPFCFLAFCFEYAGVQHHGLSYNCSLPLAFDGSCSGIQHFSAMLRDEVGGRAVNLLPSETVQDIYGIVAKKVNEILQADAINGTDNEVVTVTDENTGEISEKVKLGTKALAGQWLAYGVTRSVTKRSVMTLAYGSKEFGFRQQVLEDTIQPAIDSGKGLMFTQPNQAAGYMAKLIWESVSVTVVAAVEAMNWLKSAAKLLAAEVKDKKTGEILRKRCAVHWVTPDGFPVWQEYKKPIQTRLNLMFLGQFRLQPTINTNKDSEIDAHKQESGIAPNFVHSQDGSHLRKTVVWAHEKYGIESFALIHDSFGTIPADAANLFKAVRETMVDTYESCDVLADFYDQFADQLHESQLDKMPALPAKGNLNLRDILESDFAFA

With “5′-gatccatgtcagtgacactgcgtagatccgatgatccagtcgatg-3′ [I100-11]” the T7 directed transcription (T7 polymerase) was “increased the level of specific transcripts”, the CC50 (SUP T1 cells [1]) was 46500 nM and the “eukaryotic transcription from HSV-1 IE175 promoter” value (HSV-1 IE175 promoter) was “capable of inhibiting eukaryotic transcription”.
With “5′-gtggtgggtgggtgggtggtgggtggtggttgtgggtgggtggtg-3′ [I100-07]” the “inhibition of detection of immobilized gp120 by HRP-α-gp120 antibody” value ([2]; control experiment) was “did not inhibit”, the IC50 [2, 8] was 4250 nM and the IC50 [2, 9] was 800 nM. For the same substance, the Ki (HIV-1 RT) was 137 nM, the IC50 (HIV-1 RT) was 2500 nM and the CC50 (SUP T1 cells [3]) was > 50000 nM. For the same substance, the IC50 (HIV-1 strain DV; [10]) was 250 nM, the IC50 (HIV-1 strain DV; SUP T1, HIV-1 DV, read-out: IC50 in anti-HIV-1 syncytia formation assay) was 250 nM and the “Percent p24 relative to infected untreated control, Day 7” value (HIV-1DV; 2.5 uM, drug removed day 4) was 15.9%. The “Percent p24 relative to infected untreated control, Day 11” value (HIV-1DV; 2.5 uM, drug removed day 4) was 8.6%, the “Percent p24 relative to infected untreated control, Day 4” value (HIV-1DV; 2.5 uM, medium replaced day 4) was 6.0% and the IC50 (HIV-1DV) was 550 nM.
Work on “5′-gttgggggttgttggtggggtggtgg-3′ [I100-12] (GTTGGGGGTTGTTGGTGGGGTGGTGG; phosphorothioate backbone, further chemistry not given here) [PT version of I100-00]” yielded an IC50 [2, 8] of 475 nM, an IC50 [2, 9] of 80 nM and a Ki (HIV-1 RT) of 5 nM. The IC50 (HIV-1 RT) was 15 nM, the CC50 (SUP T1 cells [3]) was 18000 nM and the IC50 (HIV-1 strain DV; [10]) was 225 nM. For the same substance, the IC50 (HIV-1DV) was < 200 nM and the IC50 [4] was < 500 nM.
With “B106-97: fully phosphorothioated version of B106-71 (dG*dT*dG*dG*dT*dT*dG*dG*dT*dG*dG*dT*dG*dG*dT*dG*dT*dG*dT*dG*dG*dG*dT*dT*dT*dG*dG*dG*dG*dT*dG*dG*dG*dG*dG*dG; 3' end capped with propanolamine or cholesterol, which one not given here)” the “concentration reducing virus by 50%” value (HSV-2 strain HG52) was “same levels as B106-96”.
With “Dextran sulfate [DS5000, reference compound]” the IC50 virus-induced cytopathogenicity (Coxsackie virus (B4); Coxsackie virus (B4)) was >400 µg/mL, the “MCC minimum concentration altering normal cell morphology” value (Coxsackie virus (B4); Coxsackie virus (B4) assay) was >400 μg/mL and the IC50 virus-induced cytopathogenicity (Yellow Fever virus) was 26 µg/mL. For the same substance, the “MCC minimum concentration altering normal cell morphology” value (Yellow Fever virus) was >200 μg/mL, the IC50 ([5]; 3′-processing, read-out: Anti-Integrase Assay IC50 3′-proc) was 70 nM and the IC50 ([5]; strand transfer, read-out: Anti-Integrase Assay IC50 strand tran.) was 60 nM. For the same substance, the IC50 (SIVMAC251) was 548 ± 480 nM, the IC50 virus-induced cytopathogenicity (Punta Toro virus; Punta Toro virus) was 10.9 µg/mL and the “MCC minimum concentration altering normal cell morphology” value (Punta Toro virus; Punta Toro virus assay) was >400 μg/mL. The IC50 virus-induced cytopathogenicity (Tacaribe) was 13.5 µg/mL, the “MCC minimum concentration altering normal cell morphology” value (Tacaribe) was >200 μg/mL and the IC50 ([6]; HIV-1 ADP/141 (AZT resistant), MT4, read-out: IC50 virus production) was 32 ± 8 nM. The IC50 ([6]; HIV-1 IIIB, CEM-SS or MT4, read-out: Antiviral Assay IC50 IIIB) was 31 nM, the IC50 ([6]; HIV-1 IIIB, MT4, read-out: IC50 virus production) was 34 ± 16 nM and the IC50 ([6]; HIV-1 RF, CEM-SS or MT4, read-out: Antiviral Assay IC50 RF) was 16 nM. The IC50 ([6]; HIV-1 RF, MT4, read-out: IC50 virus production) was 18 ± 20 nM, the IC50 virus-induced cytopathogenicity (Semliki forest virus; Semliki forest virus) was >400 µg/mL and the “MCC minimum concentration altering normal cell morphology” value (Semliki forest virus; Semliki forest virus assay) was >400 μg/mL. For the same substance, the IC50 virus-induced cytopathogenicity (HSV-1; HSV-1 (KOS)) was 2 µg/mL, the “MCC minimum concentration altering normal cell morphology” value (HSV-1; HSV-1 (KOS) assay) was >400 μg/mL and the IC50 virus-induced cytopathogenicity (HSV-1; HSV-1 TK (B2006)) was 2 µg/mL. The “MCC minimum concentration altering normal cell morphology” value (HSV-1; HSV-1 TK (B2006) assay) was >400 μg/mL, the IC50 virus-induced cytopathogenicity (HSV-1; HSV-1 TK (VMW1837)) was 2 µg/mL and the “MCC minimum concentration altering normal cell morphology” value (HSV-1; HSV-1 TK (VMW1837) assay) was >400 μg/mL. The IC50 virus-induced cytopathogenicity [7] was 20 µg/mL, the “MCC minimum concentration altering normal cell morphology” value [7] was >400 μg/mL and the “MCC minimum concentration altering normal cell morphology” value (Influenza A (H3N2)) was >400 μg/mL. The IC50 virus-induced cytopathogenicity (Vaccinia virus) was >400 µg/mL, the “MCC minimum concentration altering normal cell morphology” value (Vaccinia virus) was >400 μg/mL and the IC50 (HIV-2 (ROD, EHO); HIV-2EHO) was 84 ± 86 nM. The IC50 (HIV-2 (ROD, EHO); HIV-2ROD) was 82 ± 88 nM, the IC50 virus-induced cytopathogenicity (Sindbis virus; Sindbis virus) was 10 µg/mL and the “MCC minimum concentration altering normal cell morphology” value (Sindbis virus; Sindbis virus assay) was >400 μg/mL. For the same substance, the IC50 virus-induced cytopathogenicity (Polio virus-1) was >400 µg/mL, the “MCC minimum concentration altering normal cell morphology” value (Polio virus-1) was >400 μg/mL and the IC50 virus-induced cytopathogenicity (RSV (A2); RSV (A2)) was 4 µg/mL. For the same substance, the “MCC minimum concentration altering normal cell morphology” value (RSV (A2); RSV (A2) assay) was >200 μg/mL, the IC50 virus-induced cytopathogenicity (HSV-2 (G); HSV-2 (G)) was 2 µg/mL and the “MCC minimum concentration altering normal cell morphology” value (HSV-2 (G); HSV-2 (G) assay) was >400 μg/mL. For the same substance, the IC50 virus-induced cytopathogenicity (Junin virus) was 13 µg/mL and the “MCC minimum concentration altering normal cell morphology” value (Junin virus) was >200 μg/mL.
